Literature values in US10471178B2, “Implantable medical devices with increased immune tolerance, and methods for making and implanting” (AMPIO PHARMACEUTICALS, INC., priority 2011, dated 2019).

Tested on: memory but not naive human T lymphocytes
Settings: memory vs naive human T lymphocytes

C[C@@H]1NC(=O)[C@H](CC(=O)O)NC1=O [DA-DKP, Aspartate, Alanine-Diketopiperazine]
immunomodulatory effect on human T lymphocytes: immunomodulatory for memory but not naive human T lymphocytes
